In one series the test system is MPTP-treated mice. As to the kind of experiment: Open field test in the acute MPTP mouse model of PD. In kind it is in vivo. The method, then:
MPTP was injected intraperitoneally into mice of C57Bl/6 line every 2 h in 8 h period in one day in a dose of 20 mg/kg for a total of four doses as described before, and one additional dose of MPTP was injected on the 7th day. The studied compound PA96 was dissolved in saline containing 0.5% Tween 80 just before use. PA96 in a dose of 1 and 10 mg/kg or VEH was administrated per os 24 h after the last injection of MPTP. Then, PA96 or VEH was injected for 14 days in a 5-day-per-week regime for a total of […].
The effectiveness of the studied medications was evaluated according to their ability to reduce the symptoms of hypokinesia induced by MPTP on days 1, 7, and 14 of the experiment. Hypokinesia caused by neurotoxin administration was evaluated with the “open field” test performed for 2 min using Tru Scan (U.S.) 2 h after the administration of the studied compound, registering the main markers of the locomotor and exploratory activities: time of locomotor activity (s) and movement distance (cm).

Series [1] has as its system haloperidol-induced catalepsy. Kind of series: Haloperidol-induced catalepsy, parallel bars test. In kind it is in vivo, male Wistar rats. Particulars: 1, 10, 20 mg/kg per os, haloperidol 1.5 mg/kg i.p. The protocol: Neuroleptic-induced catalepsy has long been used as an animal model for screening drugs for parkinsonism, as described before. Adult male Wistar rats were divided into four groups, each containing six animals. Group 1 received haloperidol 1.5 mg/kg in normal saline and served as the cataleptic control without any drug treatment. The studied compound PA96 was dissolved in saline containing 0.5% Tween 80 just before use. Groups 2, 3, and 4 received PA-96 in a dose of 1, 10, or 20 mg/kg per os accordingly; 10 min after the PA96 administration, catalepsy was induced by the intraperitoneal administration of haloperidol in a dose of 1.5 mg/kg body weight in normal saline. All the behavioral studies were performed at room temperature in a calm room without external interference. The severity of catalepsy was measured 30, 60, 120, 180, and 240 min after haloperidol administration using the method of parallel bars. The fore and hind limbs of a rat were placed on parallel bars (walls) to ensure that the animal’s back was straight, and the time spent by the animal in an immobilized state was recorded. The general duration of catalepsy and the percentage of cataleptic animals in the group were evaluated.

Series [2] has as its system MPTP-lesioned C57BL/6 mice. As to the kind of experiment: DA and DOPAC levels in midbrain and striatum by HPLC-ED after MPTP lesion. In kind it is in vivo. The protocol:
Neurochemical analyses via HPLC-ED were conducted as described before. Microdissected samples of the striatum (ST) and midbrain were homogenized in 300 and 400 µL of cold 0.6 M HClO4, respectively, using a motor-driven grinder (Z359971, Sigma-Aldrich, USA) and the homogenate was spun for 15 min at 12,000 rpm (+4 °C). The pellet was diluted in 1 mL of 0.1 M NaCl and used for protein quantitation by Bradford (Bio Rad, USA) according to the manufacturer’s protocol. The clear supernatant was diluted twice with pure water and used for assay of DA and […] (DOPAC) by HPLC on Luna C18(2) column (5 μm particle size, L × I.D. 75 × 4.6 mm, Phenomenex, Torrance, CA, USA) with electrochemical detection (750 mV, DECADE II™ Electrochemical Detector; Antec, The Netherlands). The standard mixes containing 1, 2, and 3 ng of DA and DOPAC were repeatedly assayed throughout the entire procedure and used to plot the calibration curves for each substance. The areas of peaks were estimated using LabSolution LG/GC software version 5.54 (Shimadzu Corporation, Japan) and calibrated against the calibrated curves for corresponding standards. The contents of DA and DOPAC were expressed nanogram (ng) per milligram (mg) of protein assayed by Bradford.

On to `C=C(C)[C@@H]1CC=C(C)[C@@H](Sc2nc[nH]n2)[C@@H]1O` [PA96, (1R,2R,6S)-2-(1H-1,2,4-triazol-3-ylthio)-3-methyl-6-(prop-1-en-2-yl)cyclohex-3-enol], for which the “tolerability of repeated dosing” value in the series with MPTP-treated mice (1 mg/kg and 10 mg/kg administered for 14 days) was “well tolerated”. The “duration of locomotor activity in open field” value with MPTP-treated mice (MPTP-treated mice, 1 mg/kg, 24 h time point, p = 0.1328 vs VEH) is “on VEH level”. Also, the “movement distance in open field” value in the series with MPTP-treated mice (MPTP-treated mice, 1 and 10 mg/kg per os) is given as “did not influence”. Moreover, in series [1], the catalepsy time entry is “significantly decreased” and the “percentage of cataleptic animals” value was “significantly decreased”. Besides, the “MPTP-induced reduction in DA level in the midbrain” value in series [2] is “tended to alleviate”. For the same compound, the “DA and DOPAC concentrations in ST or midbrain” value in series [2] (10 mg/kg) is given as “did not affect”.

Source of the values: paper PMC9738927, “A Newly Identified Monoterpenoid-Based Small Molecule Able to Support the Survival of Primary Cultured Dopamine Neurons and Alleviate MPTP-Induced Toxicity In Vivo” (Molecules, 2022).
